# In US20070207993A1, “Molybdenum carbonyl complexes for treating rheumatoid arthritis and other inflammatory diseases” (Alfama - Investigacao e Desenvolvimetno De Productos …, priority 2005, published 2007):
# What was measured:
# Wistar rats = assay: Adjuvant arthritis in rats; format: in vivo, rat
# Method: Adjuvant arthritis was induced in 11 week old, outbred Wistar rats (376-400 g) by a single intradermal injection into the subplanatar area of the right hind paw of 100 microliter of a 10 mg/ml suspension of mycobacterium butyricum in incomplete Freund's Adjuvant. The disease was induced in 3 groups of rats each consisting of 7 animals. […] Groups 2 and 3 received daily applications of methylene chloride (positive control) (500 mg/kg), or Compound I.1 (80 mg/kg), respectively. Both compounds were administered in olive oil by oral gavage. Treatment was initiated at day 10 after disease induction when signs of arthritis began to appear in the injected footpad as well as in the contralateral footpad. […] All animals were evaluated daily by determination of body weight, foot pad volume (performed by a water displacement method using a plethysmometer, Ugo Basile, Comerio, Italy), ankle circumference (using a flexible measuring tape) and arthritic index that is based on levels of erythema and oedema of the entire paws and digits, number of joints involved, spondilosis, lesions on tail, movement capacity and infections (0=normal, 1=swelling and/or redness of injected paw; 4=severe arthritis of the entire injected paw and digits; +2=2 joints are involved; +3=>2 joints are involved; +1=infection of paws; +1=tail lesions; +1=movement incapacity; +1=spondilosis). […]
# [1] = Solubility in water and RPMI; format: physicochemical
# [2] = CO release in the presence of reactive oxygen species (TBHP, H2O2, KO2); format: physicochemical; conditions: 25° C., dark; for Equivalents of CO2 released, H2O2 / Equivalents of CO released, H2O2: H2O2 100:1, water; for Equivalents of CO2 released, KO2 / Equivalents of CO released, KO2: KO2 100:1, THF; for Equivalents of CO2 released, TBHP / Equivalents of CO released, TBHP: TBHP 100:1, water
# Method: The studies were done using the same method and apparatus described in Example 7 with the following modifications: RPMI/FBS was replaced by double distilled water in the experiments with H2O2 and TBHP and by tetrahydrofuran (THF) for the experiments with KO2; the temperature was kept at 25° C. The concentration of Compound I.1 was approximately 1 mM and the ration of concentrations of H2O2, TBHP and KO2 relative to Compound I.1 was 100:1. The amount of CO2 generated was also measured in the same experiment to ascertain the concurrent oxidation of coordinated CO. TBHP was added from a 70% aqueous solution and H2O2 from a 30% aqueous solution.
# [3] = CO release in vivo (CO-hemoglobin in blood by oximeter); conditions: Balb/c mice, intraperitoneal, 100, 25 and 6.25 mg/kg, propylene glycol-water; 0, 30, 120 (330) minutes
# Method: Nine week old Balb/c mice with a body weight of about 20 g were injected by the intraperitoneal route with Compound I.1 dissolved in a propylene glycol-water mixture. Three doses (100, 25 and 6.25 mg/kg) were used. At various times after the administration of the Compound I.1 blood was collected and CO-hemoglobin levels were determined using an oximeter.
# Compound I.1 was administered intraperitonally to mice at a concentration of 100 mg/kg using propylene glycol/water ca.˜2:1 as vehicle. The amount of COHb (carboxyhemoglobin) was monitored with an oximeter in blood samples withdrawn at 0, 30, 120 and 330 minutes after administration. The results are shown in FIG. 9 and show a peaked level of CO after 30 minutes followed by a slow decline.
# Compound I.1 was encapsulated in methylated β-cyclodextrin, 2,3,6-tri-O-methyl-β-cyclodextrin, known in the art as TRIMEB, by a standard technique. The encapsulated Compound I.1@TRIMEB (“@” means “encapsulated in”) was administered intraperitonally to mice at a concentration of 30 mg/kg using phosphate buffered saline (PBS) as vehicle. The amount of COHb (carboxyhemoglobin) was monitored with an oximeter in blood samples withdrawn after 30, 60, 90 and 120 minutes after administration.
# Sprague Dawley rats = assay: Toxicity in vivo, 20-day daily dosing; design: species or system rat; conditions: 80 mg/kg daily for 20 days, in olive oil
# Method: Compound I.1 was dissolved in olive oil and administered to Sprague Dawley rats at a daily dose of 80 mg/kg for 20 days. At the end of the treatment the rats were anesthetized, blood was collected and organ samples were fixed in formalin for histological analysis.
# Balb/c mice = assay: Mortality in mice after injection of a lethal dose of LPS; format: in vivo; conditions: LPS 10 mg/kg i.p., four i.p. injections of 20 mg/kg at -60, -30 min, +4 h, +9 h
# Method: Seventeen eight week old Balb/c mice received one intraperitoneal injection of LPS at a dose of 10 mg/kg at time zero. One group of eight mice received four intraperitoneal injections of Compound I.1, each at a dose of 20 mg/kg, at 60 and 30 minutes before LPS and at 4 hours and 9 hours after LPS. A second group of 9 mice received four intraperitoneal injections of vehicle (carboxymethylcellulose 0.5%, Tween80 0.5%) at 60 and 30 minutes before LPS and at 4 hrs and 9 hrs after LPS. Survival of the mice was monitored for 168 hours.
compound,measurement,setting,value
O=[C][Mo]([Br])([C]=O)([C]=O)([C]=O)[C]=O [Compound I.1],"paw volume, paw circumference and arthritis index (all measured parameters) versus positive control","Wistar rats; Wistar rats, 80 mg/kg daily oral gavage in olive oil, day 10 to 29, methylene chloride at 500 mg/kg",superior to methylene chloride
same,effect in control rats with severe arthritis treated from day 20 on,"Wistar rats; three rats of the control group, treated for 10 days",signs of improvements
same,solubility in water and RPMI,[1],low solubility
same,"Equivalents of CO2 released, H2O2",[2]; 1 h,0.41 equivalents
same,"Equivalents of CO released, H2O2",[2]; 1 h,1.08 equivalents
same,"Equivalents of CO2 released, H2O2",[2]; 3 h,0.80 equivalents
same,"Equivalents of CO released, H2O2",[2]; 3 h,1.49 equivalents
same,"Equivalents of CO2 released, H2O2",[2]; 5 h,0.90 equivalents
same,"Equivalents of CO released, H2O2",[2]; 5 h,1.46 equivalents
same,"Equivalents of CO2 released, H2O2",[2]; 24 h,0.89 equivalents
same,"Equivalents of CO released, H2O2",[2]; 24 h,1.43 equivalents
same,"Equivalents of CO2 released, KO2",[2]; 1 h,0.00 equivalents
same,"Equivalents of CO released, KO2",[2]; 1 h,1.94 equivalents
same,"Equivalents of CO2 released, KO2",[2]; 3 h,0.00 equivalents
same,"Equivalents of CO released, KO2",[2]; 3 h,3.22 equivalents
same,"Equivalents of CO2 released, KO2",[2]; 5 h,0.00 equivalents
same,"Equivalents of CO released, KO2",[2]; 5 h,2.54 equivalents
same,"Equivalents of CO2 released, KO2",[2]; 24 h,0.00 equivalents
same,"Equivalents of CO released, KO2",[2]; 24 h,2.29 equivalents
same,"Equivalents of CO2 released, TBHP",[2]; 1 h,0.51 equivalents
same,"Equivalents of CO released, TBHP",[2]; 1 h,2.51 equivalents
same,"Equivalents of CO2 released, TBHP",[2]; 3 h,0.95 equivalents
same,"Equivalents of CO released, TBHP",[2]; 3 h,3.77 equivalents
same,"Equivalents of CO2 released, TBHP",[2]; 5 h,1.07 equivalents
same,"Equivalents of CO released, TBHP",[2]; 5 h,3.94 equivalents
same,"Equivalents of CO2 released, TBHP",[2]; 24 h,1.13 equivalents
same,"Equivalents of CO released, TBHP",[2]; 24 h,3.93 equivalents
same,CO-hemoglobin level time course,[3],"increase in CO levels during the first time interval, followed by a slow decline"
same,"histologic analysis of liver, kidney, heart, and spleen",Sprague Dawley rats,did not reveal any gross alterations
same,serum creatinine,Sprague Dawley rats,in the normal range
same,serum glutamic oxalacetic transaminase (sGOT),Sprague Dawley rats,in the normal range
same,serum glutamic pyruvic transaminase (sGPT),Sprague Dawley rats,in the normal range
same,serum urea,Sprague Dawley rats,in the normal range
same,signs of liver or kidney toxicity,Sprague Dawley rats,No signs of liver or kidney toxicity
same,mice alive at 168 hours following LPS injection,Balb/c mice,three of the eight
